Laboratory results as given in patent publication US10702534B2, “Compositions and methods relating to the radioprotective effects of apilimod” (priority 2017, dated 2020).

Tested on: acutely irradiated mice
Test: Prevention of radiation-induced mortality in mice after 8.5 Gy total body irradiation (survival analysis)
Assay type: in vivo, C57B1/6 male mice
Text: Eighty-six (86) C57B1/6 male mice were randomized into 6 groups. Group 1 (n=6) served as the untreated control group (no apilimod dimesylate or radiation). Animals in Groups 2-6 (n=16/group) were exposed to an 8.5 Gy dose of total body irradiation on Day 0. Radiation was generated with a 160 kilovolt potential (18-ma) source at a focal distance of 25 cm, hardened with a 0.35 mm A1 filtration system. Irradiation targeted the total body at a rate of approximately 1.0 Gy/minute. The total radiation dose and dose rate was measured in real time with a Farmer-type ionization chamber and a Fluke 35040 ATD dosimeter. No anesthesia was used during irradiation. Animals were monitored for survival twice daily and those that lost greater than 30% of their total starting body weight were euthanized. Animals in Groups 2 through 6 were dosed with apilimod dimesylate or vehicle exactly 3 hrs prior to radiation on Day 0 via oral gavage (PO) or intraperitoneal injection (IP) as indicated in Table 1 below. All animals were given ad libitum access to acidified drinking (pH 2.8-3.0) water from Day 3 through study completion.

Cc1cccc(/C=N/Nc2cc(N3CCOCC3)nc(OCCc3ccccn3)n2)c1 [apilimod dimesylate]
percentage of surviving animals (60 mg/kg i.p. single dose 3 hrs prior to 8.5 Gy TBI, study to Day 31, vehicle 6.25%): 43.75% | median time of survival (60 mg/kg i.p. single dose 3 hrs prior to 8.5 Gy TBI, vehicle 13.5 days): 21 days | survival (survival analysis, in words) (180 mg/kg p.o. single dose 3 hrs prior to 8.5 Gy TBI, did not reach statistical significance): trend towards increased survival | survival protection (survival analysis, in words) (delivered by intraperitoneal injection, 60 mg/kg, 3 hrs prior to 8.5 Gy TBI): significant survival protection
